One data set has as its system NCI-H187. Description: Cytotoxicity against human NCI-H187 cells by resazurin microplate assay. The data set is classed as functional, cell-based.
For data set [1], the system named is Mycobacterium tuberculosis. Description: Antimycobacterial activity against Mycobacterium tuberculosis H37Ra by green fluorescent protein microplate assay. The data set is classed as functional.
The test system of a further data set is KB. Briefly: Cytotoxicity against human KB cells by resazurin microplate assay. The data set is classed as functional, cell-based.
The next data set deals with MCF7. Briefly: Cytotoxicity against human MCF7 cells by resazurin microplate assay. The data set is classed as functional, cell-based.
A further data set concerns Plasmodium falciparum. Description: Antimalarial activity against multidrug-resistant Plasmodium falciparum K1 by microculture radioisotope technique. The data set is classed as functional, organism-based.
A further data set deals with Vero. Description: Cytotoxicity against african green monkey Vero cells by green fluorescent protein microplate assay. The data set is classed as cell-based. To be noted: chlorocebus sabaeus.

Converted amounts (≈) assume the structure as drawn. The source made the active and inactive calls. No cut-off for these calls is given here. Bounds are passed on as bounds.

As to `C=C(C)[C@H]1CC[C@]2(C)[C@H]3CC[C@@H]4[C@@]5(C)CC[C@H](OC(C)=O)C(C)(C)[C@@H]5CC[C@@]4(C)[C@]3(C)[C@@H](O)C[C@@H]12`, the result (in the data set with NCI-H187; in data set [1]; with KB; with MCF7; with Plasmodium falciparum) was inactive. The Activity result in the data set on Vero is recorded as “Non-toxic”.

On to `CC(C)(O)[C@H]1CC[C@]2(C)[C@H]3CC[C@@H]4[C@@]5(C)CC[C@H](O)C(C)(C)[C@@H]5C[C@H](O)[C@@]4(C)[C@]3(C)[C@@H](O)C[C@@H]12`, for which the 50% inhibitory concentration (IC50) in the data set with NCI-H187 is 12 µM; in the data set on KB it was 28 µM; with MCF7 it was > 105 µM; with Plasmodium falciparum it was 12 µM; with Vero, 47 µM. Moreover, in data set [1], the MIC was 50 µg/mL (≈ 105 µM).

As for `CC(=O)O[C@H]1CC[C@]2(C)[C@H]3CC[C@@H]4[C@@]5(C)CC[C@H](C(C)(C)O)[C@@H]5C[C@H](O)[C@@]4(C)[C@]3(C)[C@@H](O)C[C@H]2C1(C)C`, the IC50 was 11 µM in the data set with NCI-H187; 56 µM with KB; > 96 µM in the data set with MCF7; 5.2 µM in the data set with Plasmodium falciparum; 13 µM with Vero. Besides, 6.25 µg/mL (≈ 12 µM) was the least that counted as inhibitory in data set [1] (MIC).

Turning to `CC(C)(O)[C@H]1CC[C@]2(C)[C@H]3CC[C@@H]4[C@@]5(C)CC[C@H](O)C(C)(C)[C@@H]5CC[C@@]4(C)[C@]3(C)[C@@H](O)C[C@@H]12`, the MIC in data set [1] is > 50 µg/mL. Moreover, the Activity result in the data set with Vero is “Non-toxic”.

Compound `CC(=O)O[C@H]1CC[C@]2(C)[C@H]3CC[C@@H]4[C@@]5(C)CC[C@H](C(C)(C)O)[C@@H]5C[C@H](O)[C@@]4(C)[C@]3(C)CC[C@H]2C1(C)C` gave an MIC in data set [1] of 12.5 µg/mL (≈ 24.9 µM). Besides, the Activity result with Vero is “Non-toxic”.

In the case of `CC(C)(O)[C@H]1CC[C@]2(C)[C@H]3CC[C@@H]4[C@@]5(C)CCCC(C)(C)[C@@H]5CC[C@@]4(C)[C@]3(C)[C@@H](O)C[C@@H]12`, the MIC in data set [1] worked out at 12.5 µg/mL (≈ 28.1 µM). In addition, the Activity entry in the data set with Vero was “Non-toxic”.

In the case of `C=C(C)[C@H]1CC[C@]2(C)[C@H]3CC[C@@H]4[C@@]5(C)CCCC(C)(C)[C@@H]5C[C@H](O)[C@@]4(C)[C@]3(C)[C@@H](O)C[C@@H]12` (relative stereo), the outcome (with NCI-H187; in data set [1]; in the data set with KB; in the data set on MCF7; with Plasmodium falciparum) was inactive. Also, in the data set with Vero, the Activity result is recorded as “Non-toxic”.

With `C[C@H]1[C@@H](O)O[C@@H]2O[C@@]3(C)CC[C@H]4[C@H](C)CC[C@@H]1[C@@]24OO3` [ARTENIMOL], the midpoint of inhibition in the data set with Plasmodium falciparum, the IC50, lay at 0.0011 µM.

`Cc1c2ccncc2c(C)c2c1[nH]c1ccccc12` [ELLIPTECINE] yielded an IC50 in the data set with Vero of 9.8 µM.

Take `CC(C)(O)[C@H]1CC[C@H]([C@H]2CC[C@@]3(C)C4=CC[C@H]5C(C)(C)[C@@H](O)CC[C@]5(C)C4=CC[C@]23C)CO1` [HYPOCRELLOL A]: the outcome (in the data set with NCI-H187; in data set [1]; in the data set on KB; in the data set on MCF7; in the data set on Plasmodium falciparum) was inactive. Besides, in the data set on Vero, the Activity entry is “Non-toxic”.

In the case of `CC(=O)O[C@H]1CC[C@]2(C)C3=CC[C@]4(C)[C@@H]([C@H]5CC[C@H](C(C)(C)O)OC5)CC[C@@]4(C)C3=CC[C@H]2C1(C)C` [HYPOCRELLOL B], the result (in the data set on NCI-H187; in data set [1]; in the data set on KB; in the data set with MCF7; in the data set on Plasmodium falciparum) was inactive. In the data set on Vero, the Activity entry was “Non-toxic”.

Regarding `CC(=O)O[C@H]1CC[C@]2(C)C3=C(CC[C@H]2C1(C)C)[C@]1(C)CC[C@H]([C@H]2CC[C@H](C(C)(C)O)OC2)[C@@]1(C)C[C@H]3O` [HYPOCRELLOL D], the IC50 in the data set with NCI-H187 was determined as 18 µM; in the data set with KB it was 15 µM; with MCF7, 38 µM; in the data set on Plasmodium falciparum, 8 µM; with Vero, 30 µM. In data set [1], this compound yielded an MIC of 50 µg/mL (≈ 96.8 µM).

`NNC(=O)c1ccncc1` [ISONIAZID]: in data set [1], inhibition of growth (MIC) required 0.0234 µg/mL (≈ 0.171 µM).

(Values after ChEMBL document CHEMBL1926505, “Lanostane and hopane triterpenes from the entomopathogenic fungus Hypocrella sp. BCC 14524” (J Nat Prod, 2011).)
